Assay results reported in patent US4786638A, “2,4-disubstituted-5-cyano-1,6-dihydro-6-oxo-1-pyrimidineacetic acid aldose reductase inhibitors” (American Home Products Corporation, priority 1987, dated 1988).
Like-named read-outs stand apart in the source and are kept apart here.

Columns and labels:
[1] = test system: galactitol accumulation in the tissues of the lens, sciatic nerve, and diaphragm; assay: Galactosemic rats: lowering of dulcitol (galactitol) accumulation in lens, sciatic nerve and diaphragm; assay type: in vivo, Male Sprague-Dawley rats; details: for % Lowering dulcitol accumulation IN VIVO, D: diaphragm
Description: Such experiments are exemplified hereinbelow after the listing of the following general comments pertaining to these experiments:
Male Sprague-Dawley rats, weighing approximately 90 grams were separated into groups of equal average body weight, with six animals per group. The animals were housed in cages of six animals each and maintained on 12 hour night/12 hour day cycles. Except as otherwise noted, the animals were given food and water ad libitum.
On day 1, the galactosemic control group and all drug-treated groups were given access to 20% galactose chow (Bio-Serv, Frenchtown, N.J.). Animals in the control group were given access to 20% glucose chow (Bio-Serv). Test compounds were administered either in the diet or by gavage as a suspension in 2% Tween 80 in saline. In experiments in which gavage dosing was used, the animals were administered the test compound daily at approximately the same hour each day. Food intake and body weight were determined twice during the course of the experiment. In cases in which the compound was administered in the diet, the average dose was calculated on the basis of the actual average food intake during the experiment.
On the morning of day 5, all animals were fasted; beginning two hours later the animals were decapitated and the lenses, sciatic nerves, and a 50-100 mg portion of the diaphragm were removed, weighed, and frozen in porcelain plates on dry ice.
Only two minor reagent changes were made: (a) the rinsing mixture was an aqueous 5% (w/v) trichloroacetic acid solution and (b) the stock solution was prepared by dissolving 25 mg of dulcitol in 100 mL of an aqueous trichloroacetic acid solution [N.B.: For each experiment the average value found in the tissue from rats fed the glucose diet was subtracted from the individual values found in the corresponding tissue in galactose-fed rats to obtain the amount of polyol accumulated.]
The figures under L, N and D represent the percentage decrease of galactitol accumulation in the tissues of the lens, sciatic nerve, and diaphragm, respectively for treated rats as compared to untreated rats.

[2] = molecular target: T1, aldose reductase (Bos taurus, UniProt P16116); assay: In vitro aldose reductase inhibition (modified Hayman and Kinoshita procedure; enzyme from bovine lens); assay type: biochemical; details: for inhibition at 10 µM: read-out: % Inhibition IN VITRO 10^-5 M; for inhibition at 1 µM: read-out: % Inhibition IN VITRO 10^-6 M; for inhibition at 0.1 µM: read-out: % Inhibition IN VITRO 10^-7 M
T1 construct: preparation of the enzyme from bovine lens; from tissue; host or cells: bovine lens
From the text: In the present case the procedure of Hayman and Kinoshita was modified in that the final chromatography step was omitted in the preparation of the enzyme from bovine lens.

[3] = 20% galactose diet, mg/kg by Example: 1:90, 2:128, 3:141, 4:93, 5:121, 6:110, 7:123, 8:87, 9:92, 10:102, 11:71, 12:84, 13:93, 14:112, 16:100, 17:100, 18:128, 19:117, 20:140, 21:103, 22:151, tolrestat:6
[4] = lens, 20% galactose diet, mg/kg by Example: 1:90, 2:128, 3:141, 4:93, 5:121, 6:110, 7:123, 8:87, 9:92, 10:102, 11:71, 12:84, 13:93, 14:112, 16:100, 17:100, 18:128, 19:117, 20:140, 21:103, 22:151, tolrestat:6

Compound	% Lowering dulcitol accumulation IN VIVO, L [1]	% Lowering dulcitol accumulation IN VIVO, D [1, 3]	inhibition at 10 µM [2] [%]	inhibition at 1 µM [2] [%]	inhibition at 0.1 µM [2] [%]	% Lowering dulcitol accumulation IN VIVO, L [1, 4]	% Lowering dulcitol accumulation IN VIVO, D ([1]; 98 mg/kg)	% Lowering dulcitol accumulation IN VIVO, D ([1]; 196 mg/kg)	% Lowering dulcitol accumulation IN VIVO, L ([1]; lens, 98 mg/kg)	% Lowering dulcitol accumulation IN VIVO, L ([1]; lens, 196 mg/kg)
CSc1nc(C2CCCCC2)n(CC(=O)O)c(=O)c1C#N [Example 1, 5-Cyano-2-cyclohexyl-1,6-dihydro-4-(methylthio)-6-oxo-1-pyrimidineacetic Acid]	N.S.	42%								
N#Cc1c(SCc2ccccc2)nc(C2CCCCC2)n(CC(=O)O)c1=O [Example 2]		N.S.	97	96	91	N.S.				
N#Cc1c(SCc2ccc(Br)cc2)nc(C2CCCCC2)n(CC(=O)O)c1=O [Example 3]		N.S.	96	96	93	N.S.				
N#Cc1c(SCc2ccc(Br)cc2F)nc(C2CCCCC2)n(CC(=O)O)c1=O [Example 4, 4-[[(4-bromo-2-fluorophenyl)methyl]thio]-5-cyano-2-cyclohexyl-1,6-dihydro-6-oxo-1-pyrimidineacetic acid]		N.S.				15%				
CCCCCCSc1nc(C2CCCCC2)n(CC(=O)O)c(=O)c1C#N [Example 5]		N.S.	94	95	96	N.S.				
CC(C)Sc1nc(C2CCCCC2)n(CC(=O)O)c(=O)c1C#N [Example 6]		N.S.	93	92	90	N.S.				
N#Cc1c(SCC2CCCCC2)nc(C2CCCCC2)n(CC(=O)O)c1=O [Example 7]		N.S.	96	95	90	N.S.				
CSc1nc(C(C)C)n(CC(=O)O)c(=O)c1C#N [Example 8]		N.S.	96	96	94	N.S.				
CC(C)Sc1nc(C(C)C)n(CC(=O)O)c(=O)c1C#N [Example 9]		16%	96	97	91	N.S.				
CC(C)c1nc(SCc2ccccc2)c(C#N)c(=O)n1CC(=O)O [Example 10]		38%	96	98	94	N.S.				
CSc1nc(C)n(CC(=O)O)c(=O)c1C#N [Example 11, 5-Cyano-1,6-dihydro-2-methyl-4-(methylthio)-6-oxo-1-pyrimidineacetic Acid]		N.S.	86	84	74	N.S.				
Cc1nc(NCc2cccnc2)c(C#N)c(=O)n1CC(=O)O [Example 12, 5-Cyano-1,6-dihydro-2-methyl-6-oxo-4-[(3-pyridinylmethyl)amino]-1-pyrimidineacetic Acid]		N.S.	88	90	30	N.S.				
Cc1nc(N2CCCCC2)c(C#N)c(=O)n1CC(=O)O [Example 13]		N.S.	88	75	52	N.S.				
Cc1nc(N2CCN(Cc3ccccc3)CC2)c(C#N)c(=O)n1CC(=O)O [Example 14]		N.S.	92	89	64	N.S.				
Cc1nc(NCCc2ccccc2)c(C#N)c(=O)n1CC(=O)O [Example 15]			89	88	71		N.S.	N.S.	N.S.	N.S.
Cc1nc(NCC2CCCCC2)c(C#N)c(=O)n1CC(=O)O [Example 16]		N.S.	93	91	72	N.S.				
Cc1nc(NCc2ccccc2)c(C#N)c(=O)n1CC(=O)O [Example 17]		N.S.	96	90	78	N.S.				
Cc1nc(N2CCC(Cc3ccccc3)CC2)c(C#N)c(=O)n1CC(=O)O [Example 18]		N.S.	90	88	81	N.S.				
N#Cc1c(-c2ccccc2)nc(-c2cccc3ccccc23)n(CC(=O)O)c1=O [Example 19]		21%	84	68	29	N.S.				
N#Cc1c(-c2ccccc2)nc(-c2cccc3c(Br)cccc23)n(CC(=O)O)c1=O [Example 20, 5-Cyano-1,6-dihydro-2-(5-bromo-1-naphthalenyl)-6-oxo-4-phenyl-1-pyrimidineacetic Acid]		N.S.	82	71	22	N.S.				
Cc1nc(-c2cccc3ccccc23)n(CC(=O)O)c(=O)c1C#N [Example 21, 5-cyano-1,6-dihydro-4-methyl-2-(1-naphthalenyl)-6-oxo-1-pyrimidineacetic acid]		N.S.	87	55	14	18%				
N#Cc1c(Cc2cccc3ccccc23)nc(-c2cccc3c(Br)cccc23)n(CC(=O)O)c1=O [Example 22]		N.S.	93	85	46	N.S.				
